Data from patent publication US11987648B2, “Cyclohexapeptides as selective somatostatin SST5 receptor agonists” (Heptares Therapeutics Limited, priority 2018, dated 2024).
*1 amine or outer side, *2 acyl side, *3 side chain or, on linkers, in order; H or OH if unused. Where a SMILES comes first, the peptide text is derived from it. Side-chain parts run from the residue outwards. [ ]: non-standard residue; d: D form. The star is where a group is joined. Ala(piperidin-4-yl) = O=C([C@H](CC1CCN([*:3])CC1)N[*:1])[*:2]; dTrp(4-OMe) = COc1cccc2[nH]cc(C[C@@H](N)C(=O)O)c12; dTrp(5-OMe) = COc1ccc2[nH]cc(C[C@@H](N)C(=O)O)c2c1; Ala(piperazin-1-yl) = N[C@@H](CN1CCNCC1)C(=O)O; Phe(3-Cl) = N[C@@H](Cc1cccc(Cl)c1)C(=O)O; Phe(4-Cl) = N[C@@H](Cc1ccc(Cl)cc1)C(=O)O; Morpholine(3S-CO) = O=C(O)[C@@H]1COCCN1; Ethylenediamine = C(CN[*:2])N[*:1]; d(hPhe) = N[C@H](CCc1ccccc1)C(=O)O; Hyp = O=C(O)[C@@H]1C[C@@H](O)CN1; hPhe = N[C@@H](CCc1ccccc1)C(=O)O; 3Pal = N[C@@H](Cc1cccnc1)C(=O)O; Cyclohexylmethyl = C1CCC(C*)CC1; Tic = O=C(O)[C@@H]1Cc2ccccc2CN1; Benzyl(4-Cl) = Clc1ccc(C*)cc1; X6 = Clc1cccc(Cl)c1C*; CO = O=C([*:1])[*:2]; Bn = c1ccc(C*)cc1; X1 = C1CCC(C*)C1; X4 = C1CC(C*)C1

Assays:
SST5 = SST5 (Homo sapiens, UniProt P35346); assay: Hit Hunter cAMP XS+ assay, SST5 activation via Gi (reduction of forskolin-stimulated cAMP); format: cell-based; details: for Emax: read-out: SST5 (EMax); for EC50: reduction of forskolin-stimulated cAMP, 4-parameter logistic fit, read-out: SST5 pEC50 (converted); for SST5/2 Selectivity: selectivity for SST5 over SST2
Chain of SST5 (P35346 whole entry): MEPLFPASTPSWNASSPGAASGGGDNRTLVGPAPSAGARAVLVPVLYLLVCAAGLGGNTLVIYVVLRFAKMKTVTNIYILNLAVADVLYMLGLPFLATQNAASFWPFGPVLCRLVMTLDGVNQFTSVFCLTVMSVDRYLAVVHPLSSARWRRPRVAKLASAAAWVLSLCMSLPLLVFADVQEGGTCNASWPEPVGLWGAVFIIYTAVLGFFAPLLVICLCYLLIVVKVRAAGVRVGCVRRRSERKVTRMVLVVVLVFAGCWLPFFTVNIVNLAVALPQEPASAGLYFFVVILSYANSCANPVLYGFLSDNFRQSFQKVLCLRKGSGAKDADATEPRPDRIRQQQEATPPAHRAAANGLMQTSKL
Description: (§1) A Hit Hunter® cAMP XS+ assay was used to monitor activation of the SST2 and SST5 via the Gi G protein. Cells were pre-stimulated with forskolin to elicit a cAMP response and the potency and efficacy of somatostatin agonists to reduce cAMP was measured. Briefly cells (10,000 cells/well) were incubated (37° C.; 30 min) with compound ([…]) in media (2:1 HBSS/11 mM Hepes: cAMP XS+Ab reagent) in the presence of EC80 forskolin ([…] and 15 μM SST5). Signal was detected through incubation with 20 μL cAMP XS+ED/CL lysis cocktail ([…]; RT) followed by incubation with […] cAMP XS+EA reagent (180 min; RT). Microplates were read with a PerkinElmer Envision™ instrument for chemiluminescent signal detection.

SST2 = SST2 (Homo sapiens, UniProt P30874); assay: Hit Hunter cAMP XS+ assay, SST2 activation via Gi (reduction of forskolin-stimulated cAMP); format: cell-based; details: for Emax: read-out: SST2 (EMax); for EC50: reduction of forskolin-stimulated cAMP, 4-parameter logistic fit, read-out: SST2 pEC50 (converted)
Chain of SST2 (P30874 whole entry): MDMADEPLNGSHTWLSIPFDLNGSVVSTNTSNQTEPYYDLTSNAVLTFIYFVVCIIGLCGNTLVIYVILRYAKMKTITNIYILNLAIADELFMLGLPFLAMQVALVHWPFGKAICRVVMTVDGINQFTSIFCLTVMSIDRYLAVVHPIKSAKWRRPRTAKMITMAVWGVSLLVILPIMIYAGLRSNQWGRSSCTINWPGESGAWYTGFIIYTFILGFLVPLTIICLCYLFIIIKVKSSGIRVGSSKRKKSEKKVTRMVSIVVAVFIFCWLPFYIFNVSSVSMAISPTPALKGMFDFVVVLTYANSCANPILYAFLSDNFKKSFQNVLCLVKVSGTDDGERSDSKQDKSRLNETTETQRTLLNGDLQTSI
Description: as §1

Emax (SST5) [%]	EC50 (SST5) [nM]	SST5/2 Selectivity (SST5)	Emax (SST2) [%]	EC50 (SST2) [nM]	SMILES
103	12.6	171.5	82.7	2510	NCCNC(=O)O[C@@H]1C[C@H]2C(=O)N[C@H](CCc3ccccc3)C(=O)N[C@H](Cc3c[nH]c4ccccc34)C(=O)N[C@@H](CC3CCNCC3)C(=O)N[C@@H](Cc3ccc(OCc4ccccc4)cc3)C(=O)N[C@@H](Cc3ccccc3)C(=O)N2C1 [Example 38] (cyclo(F[Hyp]([CO-Ethylenediamine])[d(hPhe)][dW][Ala(piperidin-4-yl)]Y(Bn)))
107	0.398	1104.6	100	398	COc1ccc2[nH]cc(C[C@H]3NC(=O)[C@H](CCc4ccccc4)NC(=O)[C@@H]4C[C@@H](OC(=O)NCCN)CN4C(=O)[C@H](Cc4cccnc4)NC(=O)[C@H](Cc4ccc(OCc5ccccc5)cc4)NC(=O)[C@H](CC4CCNCC4)NC3=O)c2c1 [Example 39] (cyclo([3Pal][Hyp]([CO-Ethylenediamine])[hPhe][dTrp(5-OMe)][Ala(piperidin-4-yl)]Y(Bn)))
106	2.51	126.6	91.2	316	NCCNC(=O)O[C@@H]1C[C@H]2C(=O)N[C@@H](CCc3ccccc3)C(=O)N[C@H](Cc3c[nH]c4ccccc34)C(=O)N[C@@H](CC3CCNCC3)C(=O)N[C@@H](Cc3ccc(OCc4ccc(Cl)cc4)cc3)C(=O)N[C@@H](Cc3cccnc3)C(=O)N2C1 [Example 40] (cyclo([3Pal][Hyp]([CO-Ethylenediamine])[hPhe][dW][Ala(piperidin-4-yl)]Y(Benzyl(4-Cl))))
104	0.158	51.0	102	7.94	NCCNC(=O)O[C@@H]1C[C@H]2C(=O)N[C@@H](CCc3ccccc3)C(=O)N[C@H](Cc3c[nH]c4ccccc34)C(=O)N[C@@H](CC3CCNCC3)C(=O)N[C@@H](Cc3ccc(OCc4ccccc4)cc3)C(=O)N[C@@H](Cc3cccc(Cl)c3)C(=O)N2C1 [Example 41] (cyclo([Hyp]([CO-Ethylenediamine])[hPhe][dW][Ala(piperidin-4-yl)]Y(Bn)[Phe(3-Cl)]))
104	0.251	45.1	99.3	12.6	NCCNC(=O)O[C@@H]1C[C@H]2C(=O)N[C@@H](CCc3ccccc3)C(=O)N[C@H](Cc3c[nH]c4ccccc34)C(=O)N[C@@H](CC3CCNCC3)C(=O)N[C@@H](Cc3ccc(OCc4ccccc4)cc3)C(=O)N[C@@H](Cc3ccc(Cl)cc3)C(=O)N2C1 [Example 42] (cyclo([Hyp]([CO-Ethylenediamine])[hPhe][dW][Ala(piperidin-4-yl)]Y(Bn)[Phe(4-Cl)]))
107	0.316	94.3	101	31.6	COc1ccc(C[C@@H]2NC(=O)[C@H](Cc3ccc(OCc4ccccc4)cc3)NC(=O)[C@H](CC3CCNCC3)NC(=O)[C@@H](Cc3c[nH]c4ccccc34)NC(=O)[C@H](CCc3ccccc3)NC(=O)[C@@H]3C[C@@H](OC(=O)NCCN)CN3C2=O)cc1 [Example 43] (cyclo([Hyp]([CO-Ethylenediamine])[hPhe][dW][Ala(piperidin-4-yl)]Y(Bn)Y(Me)))
105	1	823.8	75.3	794	NCCNC(=O)O[C@@H]1C[C@H]2C(=O)N[C@@H](CCc3ccccc3)C(=O)N[C@H](Cc3c[nH]c4ccccc34)C(=O)N[C@@H](CC3CCNCC3)C(=O)N[C@@H](Cc3ccc(OCC4CCCCC4)cc3)C(=O)N3Cc4ccccc4C[C@H]3C(=O)N2C1 [Example 44] (cyclo([Hyp]([CO-Ethylenediamine])[hPhe][dW][Ala(piperidin-4-yl)]Y(Cyclohexylmethyl)[Tic]))
100	0.398	430.7	100	158	O=C1N[C@@H](Cc2ccc(OCc3ccccc3)cc2)C(=O)N2Cc3ccccc3C[C@H]2C(=O)N2CCOC[C@H]2C(=O)N[C@@H](CCc2ccccc2)C(=O)N[C@H](Cc2c[nH]c3ccccc23)C(=O)N[C@H]1CC1CCNCC1 [Example 45] (cyclo([Tic][Morpholine(3S-CO)][hPhe][dW][Ala(piperidin-4-yl)]Y(Bn)))
102	0.0794	527.6	98.6	39.8	COc1cccc2[nH]cc(C[C@H]3NC(=O)[C@H](CCc4ccccc4)NC(=O)[C@@H]4COCCN4C(=O)[C@@H]4Cc5ccccc5CN4C(=O)[C@H](Cc4ccc(OCc5ccccc5)cc4)NC(=O)[C@H](CC4CCNCC4)NC3=O)c12 [Example 46] (cyclo([Tic][Morpholine(3S-CO)][hPhe][dTrp(4-OMe)][Ala(piperidin-4-yl)]Y(Bn)))
108	0.794	226.4	100	200	NCCNC(=O)O[C@@H]1C[C@H]2C(=O)N[C@@H](CCc3ccccc3)C(=O)N[C@H](Cc3c[nH]c4ccccc34)C(=O)N[C@@H](CC3CCNCC3)C(=O)N[C@@H](Cc3ccc(OCc4c(Cl)cccc4Cl)cc3)C(=O)N[C@@H](Cc3cccnc3)C(=O)N2C1 [Example 47] (cyclo([3Pal][Hyp]([CO-Ethylenediamine])[hPhe][dW][Ala(piperidin-4-yl)]Y(X6)))
103	0.02	106.6	100	2	NCCNC(=O)O[C@@H]1C[C@H]2C(=O)N[C@@H](CCc3ccccc3)C(=O)N[C@H](Cc3c[nH]c4ccccc34)C(=O)N[C@@H](CN3CCNCC3)C(=O)N[C@@H](Cc3ccc(OCc4ccccc4)cc3)C(=O)N[C@@H](Cc3cccc(Cl)c3)C(=O)N2C1 [Example 48] (cyclo([Hyp]([CO-Ethylenediamine])[hPhe][dW][Ala(piperazin-1-yl)]Y(Bn)[Phe(3-Cl)]))
103	3.16	143.3	98.9	501	NCCNC(=O)O[C@@H]1C[C@H]2C(=O)N[C@@H](CCc3ccccc3)C(=O)N[C@H](Cc3c[nH]c4ccccc34)C(=O)N[C@@H](CC3CCNCC3)C(=O)N[C@@H](Cc3ccc(OCC4CCCC4)cc3)C(=O)N[C@@H](Cc3cccnc3)C(=O)N2C1 [Example 49] (cyclo([3Pal][Hyp]([CO-Ethylenediamine])[hPhe][dW][Ala(piperidin-4-yl)]Y(X1)))
103	15.8	41.1	95.4	631	NCCNC(=O)O[C@@H]1C[C@H]2C(=O)N[C@@H](CCc3ccccc3)C(=O)N[C@H](Cc3c[nH]c4ccccc34)C(=O)N[C@@H](CC3CCNCC3)C(=O)N[C@@H](Cc3ccc(OCC4CCC4)cc3)C(=O)N[C@@H](Cc3cccnc3)C(=O)N2C1 [Example 50] (cyclo([3Pal][Hyp]([CO-Ethylenediamine])[hPhe][dW][Ala(piperidin-4-yl)]Y(X4)))
106	0.0794	64.3	100	5.01	NCCNC(=O)O[C@@H]1C[C@H]2C(=O)N[C@@H](CCc3ccccc3)C(=O)N[C@H](Cc3c[nH]c4ccccc34)C(=O)N[C@@H](CN3CCNCC3)C(=O)N[C@@H](Cc3ccc(OCc4ccccc4)cc3)C(=O)N[C@@H](Cc3ccc(Cl)cc3)C(=O)N2C1 [Example 51] (cyclo([Hyp]([CO-Ethylenediamine])[hPhe][dW][Ala(piperazin-1-yl)]Y(Bn)[Phe(4-Cl)]))
107	0.158	2108.2	96.8	398	NCCNC(=O)O[C@@H]1C[C@H]2C(=O)N[C@@H](CCc3ccccc3)C(=O)N[C@H](Cc3c[nH]c4ccccc34)C(=O)N[C@@H](CN3CCNCC3)C(=O)N[C@@H](Cc3ccc(OCC4CCCCC4)cc3)C(=O)N[C@@H](Cc3cccnc3)C(=O)N2C1 [Example 52] (cyclo([3Pal][Hyp]([CO-Ethylenediamine])[hPhe][dW][Ala(piperazin-1-yl)]Y(Cyclohexylmethyl)))
103	31.6	293.1	50.9	> 10000	NCCNC(=O)O[C@@H]1C[C@H]2C(=O)N[C@H](CCc3ccccc3)C(=O)N[C@H](Cc3c[nH]c4ccccc34)C(=O)N[C@@H](CC3CCNCC3)C(=O)N[C@@H](Cc3ccc(OCC4CCCCC4)cc3)C(=O)N[C@@H](Cc3cccnc3)C(=O)N2C1 [Example 53] (cyclo([3Pal][Hyp]([CO-Ethylenediamine])[d(hPhe)][dW][Ala(piperidin-4-yl)]Y(Cyclohexylmethyl)))
104	0.501	1083.5	96.2	631	NCCNC(=O)O[C@@H]1C[C@H]2C(=O)N[C@@H](CCc3ccccc3)C(=O)N[C@H](Cc3c[nH]c4ccccc34)C(=O)N[C@@H](CC3CCNCC3)C(=O)N[C@@H](Cc3ccc(OCC4CCCCC4)cc3)C(=O)N[C@@H](Cc3cccnc3)C(=O)N2C1 [Example 54] (cyclo([3Pal][Hyp]([CO-Ethylenediamine])[hPhe][dW][Ala(piperidin-4-yl)]Y(Cyclohexylmethyl)))
